Assay results taken from ChEMBL document CHEMBL2169838, “Synthesis and biological evaluation of the 1-arylpyrazole class of σ(1) receptor antagonists: identification of 4-{2-[5-methyl-1-(naphthalen-2-yl)-1H-pyrazol-3-yloxy]ethyl}morpholine (S1RA, E-52862)” (J Med Chem, 2012).
≈ marks a conversion by molar mass, not a printed value.

How the values were obtained:
Cytochrome P450 2E1 [1] = target: T1, Cytochrome P450 2E1 (Homo sapiens, UniProt P05181); assay: Inhibition of human recombinant CYP2E1; type: ADME
T1 sequence (P05181 whole entry): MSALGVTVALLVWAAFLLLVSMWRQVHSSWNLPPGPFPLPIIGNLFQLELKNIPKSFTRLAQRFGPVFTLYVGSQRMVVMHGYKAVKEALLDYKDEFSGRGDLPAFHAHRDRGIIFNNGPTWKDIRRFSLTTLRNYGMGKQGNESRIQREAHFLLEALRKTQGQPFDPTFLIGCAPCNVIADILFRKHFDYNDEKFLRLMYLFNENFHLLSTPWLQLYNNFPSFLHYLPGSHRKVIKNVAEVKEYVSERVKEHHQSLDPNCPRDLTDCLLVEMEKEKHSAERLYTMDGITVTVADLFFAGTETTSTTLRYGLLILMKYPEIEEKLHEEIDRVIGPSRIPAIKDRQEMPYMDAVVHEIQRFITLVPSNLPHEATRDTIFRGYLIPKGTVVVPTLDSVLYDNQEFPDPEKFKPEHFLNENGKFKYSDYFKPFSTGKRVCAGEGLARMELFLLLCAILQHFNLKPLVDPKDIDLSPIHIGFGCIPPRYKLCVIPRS

Cytochrome P450 2D6 [2] = target: T2, Cytochrome P450 2D6 (Homo sapiens, UniProt P10635); assay: Inhibition of human recombinant CYP2D6; type: ADME
T2 sequence (P10635 whole entry): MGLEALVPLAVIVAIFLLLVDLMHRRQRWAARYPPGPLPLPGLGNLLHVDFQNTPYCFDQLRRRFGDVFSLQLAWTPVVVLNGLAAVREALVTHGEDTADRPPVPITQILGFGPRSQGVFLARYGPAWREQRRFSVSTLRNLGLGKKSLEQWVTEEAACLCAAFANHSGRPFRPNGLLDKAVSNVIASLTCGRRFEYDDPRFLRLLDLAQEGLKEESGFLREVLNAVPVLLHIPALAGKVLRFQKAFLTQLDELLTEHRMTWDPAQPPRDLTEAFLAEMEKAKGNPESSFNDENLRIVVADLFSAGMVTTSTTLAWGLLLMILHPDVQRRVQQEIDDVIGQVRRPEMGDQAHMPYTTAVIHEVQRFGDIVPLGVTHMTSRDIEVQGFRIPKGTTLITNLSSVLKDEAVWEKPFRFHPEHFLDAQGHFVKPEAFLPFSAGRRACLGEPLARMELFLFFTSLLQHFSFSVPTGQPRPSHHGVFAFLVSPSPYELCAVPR

[3] = Lipophilicity, log D of the compound by PH-metrivc technique; type: physicochemical; conditions: octanol/water
Cytochrome P450 1A2 [4] = target: T3, Cytochrome P450 1A2 (Homo sapiens, UniProt P05177); assay: Inhibition of human recombinant CYP1A2; type: ADME
T3 sequence (P05177 whole entry): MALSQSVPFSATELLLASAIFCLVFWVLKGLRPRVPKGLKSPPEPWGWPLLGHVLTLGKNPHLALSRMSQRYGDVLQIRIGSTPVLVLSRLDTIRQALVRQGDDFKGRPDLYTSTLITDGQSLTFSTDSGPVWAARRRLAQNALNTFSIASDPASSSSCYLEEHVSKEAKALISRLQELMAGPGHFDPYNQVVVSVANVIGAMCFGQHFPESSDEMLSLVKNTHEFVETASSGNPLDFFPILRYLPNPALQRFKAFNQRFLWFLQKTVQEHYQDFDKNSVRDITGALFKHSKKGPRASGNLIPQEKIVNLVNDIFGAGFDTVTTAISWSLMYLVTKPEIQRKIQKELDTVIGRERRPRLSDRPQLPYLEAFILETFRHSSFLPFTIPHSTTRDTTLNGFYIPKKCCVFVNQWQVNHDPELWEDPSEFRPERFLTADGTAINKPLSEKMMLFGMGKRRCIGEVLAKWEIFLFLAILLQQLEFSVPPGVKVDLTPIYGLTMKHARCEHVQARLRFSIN

Cytochrome P450 2B6 [5] = target: T4, Cytochrome P450 2B6 (Homo sapiens, UniProt P20813); assay: Inhibition of human recombinant CYP2B6; type: ADME
T4 sequence (P20813 whole entry): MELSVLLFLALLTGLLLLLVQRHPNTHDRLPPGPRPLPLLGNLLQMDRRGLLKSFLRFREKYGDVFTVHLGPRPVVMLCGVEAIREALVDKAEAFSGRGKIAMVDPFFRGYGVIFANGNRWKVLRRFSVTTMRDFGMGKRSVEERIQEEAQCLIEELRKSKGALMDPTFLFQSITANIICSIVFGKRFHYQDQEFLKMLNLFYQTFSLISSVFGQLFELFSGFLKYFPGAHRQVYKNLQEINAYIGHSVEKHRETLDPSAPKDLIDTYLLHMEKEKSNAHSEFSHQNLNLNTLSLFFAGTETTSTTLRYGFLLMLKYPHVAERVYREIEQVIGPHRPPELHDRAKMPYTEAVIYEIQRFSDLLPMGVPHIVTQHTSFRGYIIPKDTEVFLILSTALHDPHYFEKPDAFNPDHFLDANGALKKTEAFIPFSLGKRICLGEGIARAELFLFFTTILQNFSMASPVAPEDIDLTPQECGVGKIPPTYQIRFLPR

Cytochrome P450 2C8 [6] = target: T5, Cytochrome P450 2C8 (Homo sapiens, UniProt P10632); assay: Inhibition of human recombinant CYP2C8; type: ADME
T5 sequence (P10632 whole entry): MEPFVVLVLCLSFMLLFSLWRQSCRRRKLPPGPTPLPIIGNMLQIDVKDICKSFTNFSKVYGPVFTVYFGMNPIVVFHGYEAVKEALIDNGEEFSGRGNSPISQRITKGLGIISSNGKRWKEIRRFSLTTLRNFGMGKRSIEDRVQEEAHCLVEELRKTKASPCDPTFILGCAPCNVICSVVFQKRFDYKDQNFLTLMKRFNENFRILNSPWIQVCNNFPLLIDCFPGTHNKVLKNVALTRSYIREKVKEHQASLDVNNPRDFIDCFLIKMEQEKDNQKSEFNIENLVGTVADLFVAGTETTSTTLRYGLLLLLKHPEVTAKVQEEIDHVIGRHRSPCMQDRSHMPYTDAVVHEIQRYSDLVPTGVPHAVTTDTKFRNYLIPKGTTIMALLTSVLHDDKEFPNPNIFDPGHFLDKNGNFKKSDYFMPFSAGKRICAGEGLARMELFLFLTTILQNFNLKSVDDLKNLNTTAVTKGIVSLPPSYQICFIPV

Cytochrome P450 2C9 [7] = target: T6, Cytochrome P450 2C9 (Homo sapiens, UniProt P11712); assay: Inhibition of human recombinant CYP2C9; type: ADME
T6 sequence (P11712 whole entry): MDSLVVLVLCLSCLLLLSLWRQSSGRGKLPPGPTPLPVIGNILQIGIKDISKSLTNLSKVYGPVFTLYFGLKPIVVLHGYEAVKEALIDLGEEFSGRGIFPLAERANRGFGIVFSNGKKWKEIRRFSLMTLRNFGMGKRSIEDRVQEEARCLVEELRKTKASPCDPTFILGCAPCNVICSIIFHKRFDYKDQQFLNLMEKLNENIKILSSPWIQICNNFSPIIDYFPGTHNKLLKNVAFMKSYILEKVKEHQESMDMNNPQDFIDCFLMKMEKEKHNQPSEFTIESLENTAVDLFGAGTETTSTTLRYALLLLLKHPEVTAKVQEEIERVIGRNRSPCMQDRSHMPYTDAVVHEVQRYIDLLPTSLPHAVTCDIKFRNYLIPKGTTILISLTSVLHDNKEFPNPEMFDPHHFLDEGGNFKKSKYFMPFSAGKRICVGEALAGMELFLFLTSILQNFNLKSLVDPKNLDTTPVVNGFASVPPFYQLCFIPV

Cytochrome P450 2E1 [8] = target: T1, Cytochrome P450 2E1; assay: Inhibition of CYP2E1 in human liver microsomes; type: ADME, Microsome
Cytochrome P450 2C19 [9] = target: T7, Cytochrome P450 2C19 (Homo sapiens, UniProt P33261); assay: Inhibition of CYP2C19 in human liver microsomes; type: ADME, Microsome
T7 sequence (P33261 whole entry): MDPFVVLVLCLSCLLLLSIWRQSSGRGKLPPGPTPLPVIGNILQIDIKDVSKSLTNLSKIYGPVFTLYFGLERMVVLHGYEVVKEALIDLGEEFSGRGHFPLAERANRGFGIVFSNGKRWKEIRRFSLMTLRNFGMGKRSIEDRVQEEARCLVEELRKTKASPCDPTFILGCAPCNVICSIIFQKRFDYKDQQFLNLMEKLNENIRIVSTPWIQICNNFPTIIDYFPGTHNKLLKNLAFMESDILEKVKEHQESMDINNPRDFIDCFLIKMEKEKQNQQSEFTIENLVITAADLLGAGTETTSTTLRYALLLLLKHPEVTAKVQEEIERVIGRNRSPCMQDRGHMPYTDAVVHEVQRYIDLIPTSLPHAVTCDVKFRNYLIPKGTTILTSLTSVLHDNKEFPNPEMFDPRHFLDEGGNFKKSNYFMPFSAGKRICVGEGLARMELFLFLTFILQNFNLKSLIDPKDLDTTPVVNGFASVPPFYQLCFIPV

Cytochrome P450 2C9 [10] = target: T6, Cytochrome P450 2C9; assay: Inhibition of CYP2C9 in human liver microsomes; type: ADME, Microsome
Cytochrome P450 2C8 [11] = target: T5, Cytochrome P450 2C8; assay: Inhibition of CYP2C8 in human liver microsomes; type: ADME, Microsome
Cytochrome P450 2B6 [12] = target: T4, Cytochrome P450 2B6; assay: Inhibition of CYP2B6 in human liver microsomes; type: ADME, Microsome
Mus musculus [13] = assay: Cmax in CD1 mouse at 10 mg/kg, po at 0.5 hrs; type: ADME, organism-based; parameters: dose 10 mg/kg, route oral; conditions: in vivo
Cytochrome P450 1A2 [14] = target: T3, Cytochrome P450 1A2; assay: Inhibition of CYP1A2 in human liver microsomes; type: ADME, Microsome
[15] = AUC in CD1 mouse at 10 mg/kg, po; type: ADME, organism-based; parameters: dose 10 mg/kg, route oral; conditions: plasma
[16] = Apparent permeability across human Caco2 cells at 10 uM after 2 hrs; type: ADME, cell-based; conditions: Caco-2
Mus musculus [17] = assay: Neurotoxicity in CD1 mouse assessed as motor impairment at 32 to 64 mg/kg, ip measured after 30 to 180 mins by rotarod test; type: toxicity, organism-based; parameters: route intraperitoneal; conditions: in vivo
Mus musculus [18] = assay: Antihyperalgesic activity in ip dosed CD1 mouse partial sciatic nerve ligation model assessed as inhibition of thermal hyperalgesia administered 45 mins by plantar test; type: functional
Mus musculus [19] = assay: Antiallodynic activity in ip dosed CD1 mouse partial sciatic nerve ligation model assessed as inhibition of mechanical allodynia administered 30 mins by von Frey test; type: functional
[20] = target: T8, 5-hydroxytryptamine receptor 2B (Homo sapiens, UniProt P41595); assay: Binding affinity to human 5HT2B receptor
T8 sequence (P41595 whole entry): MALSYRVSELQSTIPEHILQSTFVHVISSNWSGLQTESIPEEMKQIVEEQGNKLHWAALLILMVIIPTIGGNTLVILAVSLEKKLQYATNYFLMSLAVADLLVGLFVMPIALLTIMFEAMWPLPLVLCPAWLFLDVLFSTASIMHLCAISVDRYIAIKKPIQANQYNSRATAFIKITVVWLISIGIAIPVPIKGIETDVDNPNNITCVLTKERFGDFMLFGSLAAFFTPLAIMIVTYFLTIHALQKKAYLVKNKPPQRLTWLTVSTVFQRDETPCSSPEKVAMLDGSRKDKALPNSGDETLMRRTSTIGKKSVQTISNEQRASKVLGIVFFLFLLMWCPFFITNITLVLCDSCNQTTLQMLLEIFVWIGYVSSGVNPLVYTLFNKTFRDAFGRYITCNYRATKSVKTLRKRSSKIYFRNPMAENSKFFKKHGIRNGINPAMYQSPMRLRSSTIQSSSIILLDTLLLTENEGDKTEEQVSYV

[21] = target: T8, 5-hydroxytryptamine receptor 2B; assay: Antagonist activity at human 5HT2B receptor; type: functional
[22] = Binding affinity to rat sigma 2 receptor
Mus musculus [23] = assay: Inhibition of capsaicin-induced mechanical hypersensitivity in CD1 mouse assessed as paw withdrawal latency at 32 mg/kg, ip administered 15 mins prior to capsaicin challenge measured 30 mins post capsaicin challenge; type: functional; conditions: route intraperitoneal
Mus musculus [24] = assay: Analgesic activity in CD1 mouse assessed as inhibition of capsaicin-induced mechanical hypersensitivity at 16 mg/kg, ip administered 15 mins prior to capsaicin challenge measured 30 mins post capsaicin challenge; type: functional; conditions: route intraperitoneal
[25] = Intrinsic clearance in human liver microsomes assessed as per mg of protein at 10 uM; type: ADME, Microsome; conditions: read-out: CLH
[26] = Thermodynamic solubility of the compound in phosphate buffer at pH 7.4; type: physicochemical; conditions: read-out: Therm_solubility
[27] = Dissociation constant, pKa of the compound; type: physicochemical
[28] = Displacement of [3H]di-o-tolylguanidine from sigma 2 receptor in guinea pig brain membranes after 120 mins by scintillation counter; type: cell membranes, Cavia porcellus, Membrane
Cytochrome P450 2C19 [29] = target: T7, Cytochrome P450 2C19; assay: Inhibition of human recombinant CYP2C19; type: ADME
Cytochrome P450 2D6 [30] = target: T2, Cytochrome P450 2D6; assay: Inhibition of CYP2D6 in human liver microsomes; type: ADME, Microsome
[31] = Partition coefficient, log P of the compound by PH-metrivc technique; type: physicochemical; conditions: octanol/water

Q: What does the source list for `Cc1cc(OCCN2CCOCC2)nn1-c1ccc2ccccc2c1`?
A: IC50 (Cytochrome P450 2E1 [1]): > 10 µM; IC50 (Cytochrome P450 2D6 [2]): > 10 µM; logD [3]: 3.4; IC50 (Cytochrome P450 1A2 [4]): > 10 µM; IC50 (Cytochrome P450 2B6 [5]): > 10 µM; IC50 (Cytochrome P450 2C8 [6]): > 10 µM; IC50 (Cytochrome P450 2C9 [7]): > 10 µM; IC50 (Cytochrome P450 2E1 [8]): > 10 µM; IC50 (Cytochrome P450 2C19 [9]): > 10 µM; IC50 (Cytochrome P450 2C9 [10]): > 10 µM; IC50 (Cytochrome P450 2C8 [11]): > 10 µM; IC50 (Cytochrome P450 2B6 [12]): > 10 µM; Cmax (Mus musculus [13]): 62 ng/mL; IC50 (Cytochrome P450 1A2 [14]): > 10 µM; AUC [15]: 958 ng·h/mL; Papp at 2 h, 10 µM [16]: 37 ×10⁻⁶ cm/s; Activity (Mus musculus [17]): Non-toxic; inhibition (Mus musculus [18]): Dose-dependent effect; ED50 (Mus musculus [18]; 0.75 h): 18.8 mg/kg; inhibition (Mus musculus [19]): Dose-dependent effect; ED50 (Mus musculus [19]; 0.5 h): 23.4 mg/kg; Ki [20]: 0.328 µM; IC50 [21]: 4.7 µM; Ki [22]: 9.3 µM; inhibition in vivo at 32 mg/kg (Mus musculus [23]): 62%; inhibition in vivo at 16 mg/kg (Mus musculus [24]): 43%; microsomal CLint at 10 µM [25]: 3 µL/min/mg; solubility thermodynamic [26]: 200 µg/mL (≈ 593 µM); pKa [27]: 6.5; Ki [28]: > 1 µM; IC50 (Cytochrome P450 2C19 [29]): > 10 µM; IC50 (Cytochrome P450 2D6 [30]): > 10 µM; logP [31]: 3.5
